Results reported in patent US5945436A, “Pyridylmethyl nitriles, amides and thioamides useful as fungicides” (Uniroyal Chemical Company, Inc., priority 1997, dated 1999).

Assays:
Colletotrichum gossypii = assay: Fungal growth inhibition, treated disc on agar (COL GOS); format: cell-based; details: disc dipped in 500 mg/l, 29° C.; for inhibition at 500 µg/mL: Colletotrichum gossypii, read-out: Percent Growth Inhibition, COL GOS
Erysiphe polygoni = assay: Powdery mildew on pinto bean, foliar application (ERY POL); format: in vivo; details: similar procedure as barley (1,000 mg/l); for pest or weed control at 1000 µg/mL: Erysiphe polygoni, read-out: Percent Reduction of Disease, ERY POL
Method in brief: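 Pinto bean plants sprayed with compound emulsion (acetone or inert solvent, TWEEN 20, water) at 1,000 mg/l, or left unsprayed, dried, then inoculated with Erysiphe polygoni spores in a 21° C greenhouse. Disease scored; percent control computed against untreated controls.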

Pythium ultimum = assay: Fungal growth inhibition, treated disc on agar (PYT ULT); format: cell-based; details: disc dipped in 500 mg/l, 29° C.; for inhibition at 500 µg/mL: Globisporangium ultimum, read-out: Percent Growth Inhibition, PYT ULT
Erysiphe graminis = assay: Powdery mildew of barley, systemic root uptake (BMS); format: in vivo; details: 45 ml of 250 mg/l, 8 days after inoculation
Method in brief: (§1)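 Pot soil of barley (BMS) and cucumber (CMS) plants was drenched with 45 ml of a 250 mg/l acetone/Tween 20 aqueous emulsion, with untreated plants as controls. Disease was scored on a rating scale that included intermediate grades.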

Botrytis cinerea = assay: Fungal growth inhibition, treated disc on agar (BOT CIN); format: cell-based; details: disc dipped in 500 mg/l, 29° C.; for inhibition at 500 µg/mL: Botrytis cinerea, read-out: Percent Growth Inhibition, BOT CIN
Uromyces phaseoli = assay: Bean rust fungus eradicant test (URO PHA); format: in vivo; details: pinto bean, eradicant spray 2 days after inoculation, 1,000 mg/l; for pest or weed control at 1000 µg/mL: Uromyces phaseoli, 216 h, read-out: Percent Reduction of Disease, URO PHA
Method in brief: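 Seven-day-old pinto bean plants (Phaseolus vulgaris, primary leaf) were inoculated with 20,000 spores/ml, held 24 h at 99% humidity and 21° C., then sprayed two days post-inoculation with acetone/TWEEN 20 emulsions at 1,000 mg/l. After nine days in a 21° C. greenhouse, disease was scored as percent reduction versus unsprayed controls.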

Fusarium oxysporum = assay: Fungal growth inhibition, treated disc on agar (FUS OXY); format: cell-based; details: disc dipped in 500 mg/l, 29° C.; for inhibition at 500 µg/mL: Fusarium oxysporum, read-out: Percent Growth Inhibition, FUS OXY
Septoria nodorum = assay: Fungal growth inhibition, treated disc on agar (SEP NOD); format: cell-based; details: disc dipped in 500 mg/l, 29° C.; for inhibition at 500 µg/mL: Parastagonospora nodorum, read-out: Percent Growth Inhibition, SEP NOD
Pyricularia oryzae = assay: whole plant or invertebrate; format: in vivo; details: for pest or weed control at 1000 µg/mL: Pyricularia oryzae, in Hordeum vulgare, foliar, 216 h, read-out: Percent Reduction of Disease, PYR ORY, barley, foliar, 1,000 mg/l; for Percent Reduction of Disease, PYR ORY: barley, foliar, 1,000 mg/l
Erysiphe cichoracearum = assay: Powdery mildew of cucumber, systemic root uptake (CMS); format: in vivo; details: 45 ml of 250 mg/l, 8 days after inoculation
Method in brief: as §1

Scierotinia minor = assay: Fungal growth inhibition, treated disc on agar (SCL MIN); format: cell-based; details: disc dipped in 500 mg/l, 29° C.; for inhibition at 500 µg/mL: read-out: Percent Growth Inhibition, SCL MIN
Excerpt: Filter paper discs, each 11 mm. in diameter, were dipped in each of the test solutions. The discs were allowed to air dry to drive off the acetone solvent. A number of untreated discs were used as controls.
The treated and untreated discs were then placed on agar plates and one of the following fungus species: Septoria nodorum (SEP NOD), Botrytis cinerea (BOT CIN), Fusarium oxysporum (FUS OXY), Pythium ultimum (PYT ULT), Rhizoctonia solani (RHI SOL), Colletotrichum gossypii (COL GOS), and Scierotinia minor (SCL MIN), was added to the center of each disc in the form of a culture plug with the fungus mat in contact with the paper of the test disc. Cercosporidium personatum (CER PER), was added to discs as a spore suspension (20,000 spores/ml) to the disc (two drops of spore suspension per disc), rather than a mycelial culture plug. The plates were then incubated at 29° C. in an oven.
With the exception of the discs containing Cercosporidium personatum, the discs were evaluated by first measuring the radius from the center of the fungus colony on the treated discs and on the untreated discs. Percent growth inhibition of each of the compounds tested was determined as a function of the difference between the radius of the fungus colony on the treated disc versus the radius of the fungus colony on the untreated disc.

Structure (SMILES)	inhibition at 500 µg/mL (Colletotrichum gossypii) [%]	pest or weed control at 1000 µg/mL (Erysiphe polygoni) [%]	inhibition at 500 µg/mL (Pythium ultimum) [%]	Percent Reduction of Disease, BMS (Erysiphe graminis) [%]	inhibition at 500 µg/mL (Botrytis cinerea) [%]	pest or weed control at 1000 µg/mL (Uromyces phaseoli) [%]	inhibition at 500 µg/mL (Fusarium oxysporum) [%]	inhibition at 500 µg/mL (Septoria nodorum) [%]	pest or weed control at 1000 µg/mL (Pyricularia oryzae) [%]	Percent Reduction of Disease, CMS (Erysiphe cichoracearum) [%]	inhibition at 500 µg/mL (Scierotinia minor) [%]	Percent Growth Inhibition, COL GOS (Colletotrichum gossypii) [%]	Percent Reduction of Disease, ERY POL (Erysiphe polygoni) [%]	Percent Growth Inhibition, PYT ULT (Pythium ultimum) [%]	Percent Growth Inhibition, BOT CIN (Botrytis cinerea) [%]	Percent Reduction of Disease, URO PHA (Uromyces phaseoli) [%]	Percent Growth Inhibition, FUS OXY (Fusarium oxysporum) [%]	Percent Growth Inhibition, SEP NOD (Septoria nodorum) [%]	Percent Reduction of Disease, PYR ORY (Pyricularia oryzae) [%]	Percent Growth Inhibition, SCL MIN (Scierotinia minor) [%]
CCCCCCC(C#N)(Cc1ccc(C(C)(C)C)cc1)c1cccnc1 (centres unmarked) [Compound 16]	42	100	45	0	20	0	5	45	20	0	5	–	–	–	–	–	–	–	–	–
CCCC(C#N)(Cc1ccc(Oc2ccccc2)cc1)c1cccnc1 (centres unmarked) [Compound 17]	20	100	45	0	5	0	60	55	70	100	10	–	–	–	–	–	–	–	–	–
C=CCC(C#N)(Cc1ccc(C(C)(C)C)cc1)c1cccnc1 (centres unmarked) [Compound 18]	10	100	40	20	10	0	50	5	85	20	10	–	–	–	–	–	–	–	–	–
CCCCC(C#N)(Cc1ccc(C(C)(C)C)cc1)c1cccnc1 (centres unmarked) [Compound 19]	91	100	93	35	40	0	100	96	35	0	100	–	–	–	–	–	–	–	–	–
CCCC(C#N)(CCc1ccccc1)c1ccncc1 (centres unmarked) [Compound 25]	72	17	0	0	55	17	63	19	0	17	86	–	–	–	–	–	–	–	–	–
CCCCC(C#N)(CCc1ccccc1)c1ccncc1 (centres unmarked) [Compound 26]	75	17	0	0	5	0	59	45	0	0	96	–	–	–	–	–	–	–	–	–
C=CCC(C#N)(CCc1ccc(OC)cc1)c1ccccn1 (centres unmarked) [Compound 28]	–	–	–	0	–	–	–	–	–	0	–	100	100	10	98	100	100	96	85	96
COc1ccc(CCC(C#N)(CC(C)C)c2ccccn2)cc1 (centres unmarked) [Compound 29]	–	–	–	0	–	–	–	–	–	0	–	95	100	0	98	100	97	83	85	94
CCCCCC(C#N)(CCc1ccc(OC)cc1)c1ccccn1 (centres unmarked) [Compound 30]	–	–	–	0	–	–	–	–	–	0	–	80	100	0	88	100	100	96	100	100
CCCCC(C#N)(CCc1ccc(OC)cc1)c1ccccn1 (centres unmarked) [Compound 31]	–	–	–	0	–	–	–	–	–	0	–	70	90	93	89	35	83	81	0	75
N#CC(CCCc1ccc(Cl)cc1)(CC1CC1)c1ccccn1 (centres unmarked) [Compound 32]	–	–	–	0	–	–	–	–	–	0	–	97	100	0	96	85	100	89	100	98
C=CCC(C#N)(CCc1ccc(C)cc1)c1cccnc1 (centres unmarked) [Compound 33]	100	100	50	40	98	100	100	96	85	20	100	–	–	–	–	–	–	–	–	–
CCCCC(C#N)(CCc1ccc(C)cc1)c1cccnc1 (centres unmarked) [Compound 34]	100	100	0	0	100	100	100	100	0	20	100	–	–	–	–	–	–	–	–	–
